Assay results reported in patent US8524754B2, “Polymorphic, crystalline and mesophase forms of sodium 2-(5-bromo-4-(4-cyclopropylnaphthalen-1-yl)-4H-1,2,4-triazol-3-ylthio) acetate, and uses thereof” (Ardea Biosciences, Inc., priority 2010, dated 2013).

Test: Solid-state stability of packaged Form A / crystalline polymorphs under accelerated and long term conditions
Assay type: physicochemical
Details: for degradation of packaged Form A: double LDPE bag inside heat sealed anhydrous foil bag in HDPE container
Protocol: Form A of sodium 2-(5-bromo-4-(4-cyclopropylnaphthalen-1-yl)-4H-1,2,4-triazol-3-ylthio)acetate was tested under various conditions to determine thermodynamic stability. […] Packaging was in a double low density polyethylene plastic bag inside a heat sealed anhydrous foil bag in an HDPE container.
The improved stability of the crystalline polymorphs of sodium 2-(5-bromo-4-(4-cyclopropylnaphthalen-1-yl)-4H-1,2,4-triazol-3-ylthio)acetate provides for the preparation of pharmaceutical dosage forms displaying reduced variability in the dosage present in a given dosage form, reduction in the presence of impurities in the final pharmaceutical product, and an improved shelf life of formulated dosage forms when compared to the pharmaceutical dosage form prepared with the amorphous solid state form of the carboxylic acid.

Structure (SMILES): O=C([O-])CSc1nnc(Br)n1-c1ccc(C2CC2)c2ccccc12.[Na+] [Form A, sodium 2-(5-bromo-4-(4-cyclopropylnaphthalen-1-yl)-4H-1,2,4-triazol-3-ylthio)acetate]
- degradation of packaged Form A (accelerated conditions (40° C.-75% RH), 6 months): No degradation
- degradation of packaged Form A (long term conditions (25° C.-60% RH), 12 months): no degradation
- stability in comparison to the amorphous solid state form of the carboxylic acid (free acid) (solid state): improvement over the solid state amorphous free acid
